From US10800792B2, “Inhibitors of Bruton's tyrosine kinase and method of their use” (JANSSEN PHARMACEUTICA NV, priority 2015, dated 2020)

Each compound was assayed against unphosphorylated-BTK kinase domain (UP-BTK), GST-tagged human BTK (389-659aa) (Homo sapiens (Human), UniProt Q06187) (assay: BTK kinase Lanthascreen binding assay). Conditions: Lanthascreen tracer competition, 60 minutes incubation; pIC50 = negative log of the IC50 in molar.
Chain of unphosphorylated-BTK kinase domain (UP-BTK), GST-tagged human BTK (389-659aa) (Q06187 389-659): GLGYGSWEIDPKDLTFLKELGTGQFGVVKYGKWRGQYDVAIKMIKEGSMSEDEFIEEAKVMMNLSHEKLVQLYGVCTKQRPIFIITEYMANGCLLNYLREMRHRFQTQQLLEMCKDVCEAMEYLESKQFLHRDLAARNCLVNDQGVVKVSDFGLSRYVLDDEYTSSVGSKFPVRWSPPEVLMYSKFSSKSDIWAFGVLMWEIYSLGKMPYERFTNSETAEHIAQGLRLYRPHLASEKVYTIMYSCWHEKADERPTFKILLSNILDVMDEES
Procedure, shortened: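 Lanthascreen competition binding; test compound vs fluorescent tracer on unphosphorylated BTK. Output: pIC50 (−log IC50, M).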
In the case of CC(=O)N1CCC[C@@H](NC(=O)c2sc3nccc4c3c2NC(=O)N4c2ccc(Oc3ccccn3)cc2)C1 [Example 808, (R)—N-(1-Acetylpiperidin-3-yl)-4-oxo-5-(4-(pyridin-2-yloxy)phenyl)-4,5-dihydro-3H-1-thia-3,5,8-triazaacenaphthylene-2-carboxamide], the “BTK_I_binding pIC50” value is reported as <6. In the case of Cc1cc(OC(C)C)ncc1N1C(=O)Nc2c(C(=O)N[C@@H]3CCCNC3)sc3nccc1c23 (single isomer, unassigned) [Example 806, (R)-5-(*R)-(6-Isopropoxy-4-methylpyridin-3-yl)-4-oxo-N-(piperidin-3-yl)-4,5-dihydro-3H-1-thia-3,5,8-triazaacenaphthylene-2-carboxamide], the “BTK_I_binding pIC50” value is reported as <6. For Cc1nc(Oc2ccccc2)ccc1N1C(=O)Nc2c(C(=O)N[C@@H]3CCOC3)sc3nccc1c23 (single isomer, unassigned) [Example 793, (R)-5-(*S)-(2-Methy-6-phenoxypyridin-3-yl)-4-oxo-N-(tetrahydrofuran-3-yl)-4,5-dihydro-3H-1-thia-3,5,8-triazaacenaphthylene-2-carboxamide], the “BTK_I_binding pIC50” value was 6.8. With Cc1c(Oc2ccccc2)cccc1N1C(=O)Nc2c(C(=O)N[C@@H]3CCCN(C(=O)/C(C#N)=C/C4CC4)C3)sc3nccc1c23 [Example 901, (R,E)-N-(1-(2-Cyano-3-cyclopropylacryloyl)piperidin-3-yl)-5-(2-methyl-3-phenoxyphenyl)-4-oxo-4,5-dihydro-3H-1-thia-3,5,8-triazaacenaphthylene-2-carboxamide] the “BTK_I_binding pIC50” value was 6.8.

Same assay, conditions: Lanthascreen tracer competition, 60 minutes incubation; pIC50 = negative log of the IC50 in molar; read-out: BTK_I_binding pIC50 (converted)
Work on C=CC(=O)N[C@H]1COC[C@H]1NC(=O)c1sc2nccc3c2c1NC(=O)N3c1cnc(Oc2ccccc2)cc1C (single isomer, unassigned) [Example 668, N-(cis-4-Acrylamidotetrahydrofuran-3-yl)-5-(*)-(4-methyl-6-phenoxypyridin-3-yl)-4-oxo-4,5-dihydro-3H-1-thia-3,5,8-triazaacenaphthylene-2-carboxamide] yielded an IC50 of 0.0158 µM.

Same assay, conditions: pIC50 = negative log of the IC50 in molar; 60 minutes incubation, 50 nM Tracer 236
C=CC(=O)N1CC(NC(=O)c2sc3nccc4c3c2NC(=O)N4c2ccc(Oc3ccccc3)cc2C)C1 [Example 109, N-(1-Acryloylazetidin-3-yl)-5-(2-methyl-4-phenoxyphenyl)-4-oxo-4,5-dihydro-3H-1-thia-3,5,8-triazaacenaphthylene-2-carboxamide] was tested, and the “BTK_I_binding pIC50” value was 7.2. In the case of C#CC(=O)N1CCC[C@@H](NC(=O)c2sc3nccc4c3c2NC(=O)N4c2ccc(Oc3ccccc3)cc2C)C1 [Example 161, (R)-5-(2-Methyl-4-phenoxyphenyl)-4-oxo-N-(1-propioloylpiperidin-3-yl)-4,5-dihydro-3H-1-thia-3,5,8-triazaacenaphthylene-2-carboxamide], the “BTK_I_binding pIC50” value is reported as 7.7. In the case of Cc1cc(Oc2ccccc2)ccc1N1C(=O)Nc2c(C(=O)NC3CCNC(C)C3)sc3nccc1c23 (centres unmarked) [Example 258, 5-(2-methyl-4-phenoxyphenyl)-N-(2-methylpiperidin-4-yl)-4-oxo-4,5-dihydro-3H-1-thia-3,5,8-triazaacenaphthylene-2-carboxamide], the “BTK_I_binding pIC50” value is reported as 6.5. In the case of CCC(=O)N1CC[C@@H](NC(=O)c2sc3nccc4c3c2NC(=O)N4c2ccc(Oc3ccccc3)cc2C)C1 (single isomer, unassigned) [Example 84, (R)-5-(*S)-(2-Methyl-4-phenoxyphenyl)-4-oxo-N-(1-propionylpyrrolidin-3-yl)-4,5-dihydro-3H-1-thia-3,5,8-triazaacenaphthylene-2-carboxamide], the “BTK_I_binding pIC50” value is reported as 7.5. With Cc1cc(Oc2ccccc2)ccc1N1C(=O)Nc2c(C(=O)NC3CCCN(C(=O)C4CC4)C3)sc3nccc1c23 (centres unmarked) [Example 205, N-(1-(Cyclopropanecarbonyl)piperidin-3-yl)-5-(2-methyl-4-phenoxyphenyl)-4-oxo-4,5-dihydro-3H-1-thia-3,5,8-triazaacenaphthylene-2-carboxamide] the “BTK_I_binding pIC50” value was 6.8. For CO[C@@H]1C[C@@H](NC(=O)c2sc3nccc4c3c2NC(=O)N4c2ccc(Oc3ccccc3)cc2)CN(C)C1 [Example 259, N-((3R,5R)-5-Methoxy-1-methylpiperidin-3-yl)-4-oxo-5-(4-phenoxyphenyl)-4,5-dihydro-3H-1-thia-3,5,8-triazaacenaphthylene-2-carboxamide], the “BTK_I_binding pIC50” value was 6.5. In the case of C=CC(=O)N1CC[C@@H](NC(=O)c2sc3nccc4c3c2NC(=O)N4c2ccc(Oc3ccccc3)c(C)c2C)C1 [Example 77, (R)—N-(1-Acryloylpyrrolidin-3-yl)-5-(2,3-dimethyl-4-phenoxyphenyl)-4-oxo-4,5-dihydro-3H-1-thia-3,5,8-triazaacenaphthylene-2-carboxamide], the “BTK_I_binding pIC50” value is reported as 6.9. For Cc1cc(Oc2ccccc2)ccc1N1C(=O)Nc2c(C(=O)NC3CCNC(=O)C3)sc3nccc1c23 (centres unmarked) [Example 166, 5-(2-Methyl-4-phenoxyphenyl)-4-oxo-N-(2-oxopiperidin-4-yl)-4,5-dihydro-3H-1-thia-3,5,8-triazaacenaphthylene-2-carboxamide], the “BTK_I_binding pIC50” value was 6.9. In the case of Cc1cc(Oc2ccccc2)ccc1N1C(=O)Nc2c(C(=O)N[C@H]3CCOC3)sc3nccc1c23 [Example 90, (S)-5-(2-Methyl-4-phenoxyphenyl)-4-oxo-N-(tetrahydrofuran-3-yl)-4,5-dihydro-3H-1-thia-3,5,8-triazaacenaphthylene-2-carboxamide], the “BTK_I_binding pIC50” value is reported as 7.5.

Same assay, conditions: unphosphorylated-BTK kinase domain, 50 nM Tracer 236, 60 minutes; pIC50 = negative log of the IC50 in molar
In the case of C=CC(=O)N1CCC[C@@H](NC(=O)c2sc3nccc4c3c2NC(=O)N4c2cnc(Oc3ccccc3)cn2)C1 [Example 528, (R)—N-(1-Acryloylpiperidin-3-yl)-4-oxo-5-(5-phenoxypyrazin-2-yl)-4,5-dihydro-3H-1-thia-3,5,8-triazaacenaphthylene-2-carboxamide], the “BTK_I_binding pIC50” value is reported as 7.8. With Cc1cc(Oc2ccccc2)ccc1N1C(=O)Nc2c(C(=O)N[C@@H]3CCN(C(=O)CN(C)C)C3)sc3nccc1c23 [Example 384, (R)—N-(1-(2-(Dimethylamino)acetyl)pyrrolidin-3-yl)-5-(2-methyl-4-phenoxyphenyl)-4-oxo-4,5-dihydro-3H-1-thia-3,5,8-triazaacenaphthylene-2-carboxamide] the “BTK_I_binding pIC50” value was 7.1. For C=CC(=O)N1CCC[C@@H](NC(=O)c2sc3nccc4c3c2NC(=O)N4c2ccc(Oc3ccccc3)c(C)c2)C1 [Example 536, (R)—N-(1-Acryloylpiperidin-3-yl)-5-(3-methyl-4-phenoxyphenyl)-4-oxo-4,5-dihydro-3H-1-thia-3,5,8-triazaacenaphthylene-2-carboxamide], the “BTK_I_binding pIC50” value was 7.5. C=CC(=O)N1CCC[C@@H](NC(=O)c2sc3nccc4c3c2NC(=O)N4c2cccc(-c3ccc(F)cc3F)c2)C1 [Example 515, (R)—N-(1-Acryloylpiperidin-3-yl)-5-(2′,4′-difluoro-[1,1′-biphenyl]-3-yl)-4-oxo-4,5-dihydro-3H-1-thia-3,5,8-triazaacenaphthylene-2-carboxamide] was tested, and the “BTK_I_binding pIC50” value was 7.7.

Same assay, conditions: unphosphorylated-BTK kinase domain, 60 minutes incubation, 50 nM Tracer 236; pIC50 = negative log of the IC50 in molar
For O=C(NC1CCNCC1)c1sc2nccc3c2c1NC(=O)N3c1ccc(Oc2ccccc2)cc1 [Example 926, 4-oxo-5-(4-phenoxyphenyl)-N-(piperidin-4-yl)-4,5-dihydro-3H-1-thia-3,5,8-triazaacenaphthylene-2-carboxamide], the “BTK_I_binding pIC50” value was 6.2. O=C(NCCN1CCNCC1)c1sc2nccc3c2c1NC(=O)N3c1ccc(Oc2ccccc2)cc1 [Example 928, 4-Oxo-5-(4-phenoxyphenyl)-N-(2-(piperazin-1-yl)ethyl)-4,5-dihydro-3H-1-thia-3,5,8-triazaacenaphthylene-2-carboxamide] was tested, and the “BTK_I_binding pIC50” value was 6.2.
